Earlier results in patent US4650854A, “Amide analogs of calcitonin” (USV Pharmaceutical Corporation, priority 1985, dated 1987).
Where no end group is shown, it is not given here.

Conditions: Monikawa et al., Experientia 32(9), 1104-1106 (1976)

Substance | hypocalcemic potency
(1,7-α-L-aminosuberic acid)eel calcitonin | about 3400 Iu/mg
eel calcitonin (CSNLSTCVLGKLSQELHKLQTYPRTDVGAGTP; ends and bridges not checked; cysteine pairing not given here; UniProt P01262 1-32, looked up) [synthetic eel calcitonin, synthetic eel calcitonin, natural 32 amino acid calcitonin peptide] | around 4300 Iu/mg
